Where a SMILES comes first, the peptide text is derived from it. [ ]: non-standard residue; d: D form. βAla = NCCC(=O)O
What was measured:
[1] = molecular target: T1, Kappa-type opioid receptor (Homo sapiens, UniProt P41145); assay: Binding affinity to KOR (unknown origin) assessed as inhibition constant
[2] = molecular target: T2, Mu-type opioid receptor (Homo sapiens, UniProt P35372); assay: Binding affinity to MOR (unknown origin) assessed as inhibition constant by radioligand binding assay
[3] = Half life in human; format: ADME
[4] = Tmax in Sprague-Dawley rat at 1 mg/kg, iv by LC-MS analysis; format: ADME, organism-based; conditions: in vivo
[5] = molecular target: T1, Kappa-type opioid receptor; assay: Binding affinity to KOR (unknown origin) expressed in CHO-K1 cell membrane assessed as stimulation of [35S]-GTPgammaS binding incubated for 1.5 hrs by scintillation spectroscopy analysis relative DAMGO; format: cell membranes
[6] = molecular target: T1, Kappa-type opioid receptor; assay: Agonist activity at KOR (unknown origin) by measuring cAMP inhibition; format: functional
[7] = tested on: Mus musculus; assay: Antinociceptive activity in CFA-induced mechanical allodynia in CD1 mouse model assessed as reduction in nociceptive response by measuring effective dose at iv administration; format: functional
[8] = species: Mus musculus; assay: Antinociceptive activity in CFA-induced mechanical allodynia CD1 mouse model assessed as reduction in mechanical allodynia; format: functional
[9] = tested on: Mus musculus; assay: Antinociceptive activity in CFA-induced mechanical allodynia in CD1 mouse model assessed as reduction in nociceptive response by measuring effective dose at ip administration; format: functional
[10] = tested on: Mus musculus; assay: Analgesic activity in iv dosed DBTC-induced neuropathic pain CD1 mouse model assessed as effective dose measured for 1 weeks; format: functional; conditions: CD1, 168 h
[11] = species: Mus musculus; assay: Antinociceptive activity in Sprague-Dawley mouse assessed as inhibition of acetic acid-induced abdominal constrictions in presence of naloxone; format: functional
[12] = species: Mus musculus; assay: Antinociceptive activity in Sprague-Dawley mouse assessed as inhibition of acetic acid-induced abdominal constrictions; format: functional
[13] = molecular target: T1, Kappa-type opioid receptor; assay: Binding affinity to human KOR expressed in HEK293 cells assessed as inhibition of forskolin-stimulated cAMP accumulation by HTRF assay; format: cell-based
[14] = molecular target: T3, Delta-type opioid receptor (Homo sapiens, UniProt P41143); assay: Binding affinity to human DOR assessed as inhibition constant
[15] = molecular target: T3, Delta-type opioid receptor; assay: Binding affinity to DOR (unknown origin) assessed as inhibition constant by ratio ligand binding assay
[16] = tested on: Mus musculus; assay: Antinociceptive activity in sc dosed Ach-induced mouse assessed as inhibition of abdominal constriction; format: functional
[17] = molecular target: Kappa-type opioid receptor (Mus musculus, UniProt P33534); assay: Agonist activity at KOR in mouse vas deferens assessed as inhibition of electrically evoked vas deferens contraction
[18] = molecular target: T1, Kappa-type opioid receptor; assay: Binding affinity to wild type human KOR assessed as inhibition constant
[19] = tested on: Mus musculus; assay: Analgesic activity in sc dosed acetic acid induced mouse assessed as assessed as reduction in acetic acid induced writhing […]; format: functional
[20] = species: Mus musculus; assay: Analgesic activity in acetic acid induced mouse assessed as assessed as reduction in acetic acid induced writhing […]; format: functional
[21] = tested on: Mus musculus; assay: Antinociceptive activity in CD-1 mouse assessed as maximum possible effect at 10 nmol, icv measured after 15 mins by tail-flick test; format: functional; conditions: 0.25 h
[22] = molecular target: Kappa-type opioid receptor (Cavia porcellus, UniProt P41144); assay: Agonist activity at KOR in guinea pig brain membranes assessed as stimulation of [35S]GTPgammaS binding measured after 1 hr by liquid scintillation counting analysis; format: functional, cell membranes, Membrane
[23] = molecular target: T1, Kappa-type opioid receptor; assay: Agonist activity at wild type human KOR receptor expressed in CHO cells assessed as stimulation of [35S]GTPgammaS binding measured after 30 mins by scintillation counting assay; format: functional, cell-based
[24] = molecular target: T3, Delta-type opioid receptor; assay: Binding affinity to human DOR expressed in HEK293 cells assessed as inhibition constant by GTPgammaS assay; format: cell-based
[25] = molecular target: T2, Mu-type opioid receptor; assay: Binding affinity to human MOR expressed in HEK293 cells assessed as inhibition constant by GTPgammaS assay; format: cell-based
[26] = molecular target: Kappa-type opioid receptor (Cavia porcellus) (UniProt P41144); assay: Agonist activity at KOR in guinea pig brain membranes assessed as stimulation of [35S]GTPgammaS binding relative to control; format: functional, cell membranes; conditions: Membrane, filed as agonist
[27] = Half life in C57BL/6 mouse brain at 20 mg/kg, ip by LC-MS/MS analysis; format: ADME, organism-based
[28] = Half life in C57BL/6 mouse […] at 20 mg/kg, ip by LC-MS/MS analysis; format: ADME, organism-based
[29] = Half life in C57BL/6 mouse plasma at 20 mg/kg, ip by LC-MS/MS analysis; format: ADME, organism-based
[30] = tested on: Mus musculus; assay: Antinociceptive activity in C57BL/6 mouse model of acute thermal pain assessed as paw withdrawal thermal threshold time at 1 mg/kg, po measured after 4 hrs by hot plate test; format: functional
[31] = molecular target: T2, Mu-type opioid receptor; assay: Agonist activity at human MOR expressed in CHO-K1 cells assessed as inhibition of forskolin-stimulated cAMP accumulation incubated for 45 mins by cAMP HTRF assay; format: functional, cell-based
[32] = tested on: Mus musculus; assay: Antinociceptive activity in sc dosed mouse assessed as inhibition of acetic acid-induced abdominal constrictions by writhing test; format: functional
[33] = molecular target: T1, Kappa-type opioid receptor; assay: Binding affinity to human recombinant KOR assessed as inhibition constant
[34] = tested on: Mus musculus; assay: Antinociceptive activity in sc dosed mouse measured after 60 mins by warm water tail-flick assay; format: functional; conditions: 1 h
[35] = species: Mus musculus; assay: Antinociceptive activity in C57BL/6 mouse model of acute thermal pain assessed as paw withdrawal thermal threshold time by hot plate test; format: functional
[36] = molecular target: T3, Delta-type opioid receptor; assay: Binding affinity human DOR expressed in CHO cells assessed as inhibition constant by radio ligand binding assay; format: cell-based
[37] = tested on: Mus musculus; assay: Antinociceptive activity in ip dosed mouse assessed as inhibition of acetic acid-induced abdominal constrictions by writhing test; format: functional

T1 sequence (P41145 whole entry): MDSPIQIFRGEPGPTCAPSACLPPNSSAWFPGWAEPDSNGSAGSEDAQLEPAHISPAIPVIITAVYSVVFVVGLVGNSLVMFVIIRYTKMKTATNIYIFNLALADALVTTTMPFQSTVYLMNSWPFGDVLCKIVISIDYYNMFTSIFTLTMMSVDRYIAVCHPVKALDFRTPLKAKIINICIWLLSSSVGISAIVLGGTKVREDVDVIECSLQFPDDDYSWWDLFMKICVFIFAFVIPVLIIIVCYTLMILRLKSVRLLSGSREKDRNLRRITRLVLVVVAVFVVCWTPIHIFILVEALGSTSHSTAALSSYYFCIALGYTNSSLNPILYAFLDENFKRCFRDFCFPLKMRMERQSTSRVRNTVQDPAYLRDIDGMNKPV
T2 sequence (P35372 whole entry): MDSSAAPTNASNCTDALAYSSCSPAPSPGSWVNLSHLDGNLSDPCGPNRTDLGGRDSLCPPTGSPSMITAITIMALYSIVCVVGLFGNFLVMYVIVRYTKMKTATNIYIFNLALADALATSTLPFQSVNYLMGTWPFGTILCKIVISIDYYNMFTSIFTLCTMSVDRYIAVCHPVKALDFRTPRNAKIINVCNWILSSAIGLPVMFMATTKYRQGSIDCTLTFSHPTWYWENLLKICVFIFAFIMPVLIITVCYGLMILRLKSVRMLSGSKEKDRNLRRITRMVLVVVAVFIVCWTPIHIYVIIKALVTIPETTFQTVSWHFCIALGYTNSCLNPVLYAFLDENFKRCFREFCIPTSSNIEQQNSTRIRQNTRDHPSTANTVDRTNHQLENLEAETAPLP
T3 sequence (P41143 whole entry): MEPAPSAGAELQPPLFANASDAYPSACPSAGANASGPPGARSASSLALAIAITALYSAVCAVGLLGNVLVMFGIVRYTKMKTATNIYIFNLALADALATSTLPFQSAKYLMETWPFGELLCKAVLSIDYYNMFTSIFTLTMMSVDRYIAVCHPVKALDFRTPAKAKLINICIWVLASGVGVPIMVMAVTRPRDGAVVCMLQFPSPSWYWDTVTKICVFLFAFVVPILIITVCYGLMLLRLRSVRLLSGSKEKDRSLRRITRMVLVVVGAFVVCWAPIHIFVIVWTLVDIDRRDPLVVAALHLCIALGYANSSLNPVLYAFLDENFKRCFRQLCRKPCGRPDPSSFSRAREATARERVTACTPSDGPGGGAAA
Sequence of Kappa-type opioid receptor (Mus musculus, UniProt P33534) (P33534 whole entry): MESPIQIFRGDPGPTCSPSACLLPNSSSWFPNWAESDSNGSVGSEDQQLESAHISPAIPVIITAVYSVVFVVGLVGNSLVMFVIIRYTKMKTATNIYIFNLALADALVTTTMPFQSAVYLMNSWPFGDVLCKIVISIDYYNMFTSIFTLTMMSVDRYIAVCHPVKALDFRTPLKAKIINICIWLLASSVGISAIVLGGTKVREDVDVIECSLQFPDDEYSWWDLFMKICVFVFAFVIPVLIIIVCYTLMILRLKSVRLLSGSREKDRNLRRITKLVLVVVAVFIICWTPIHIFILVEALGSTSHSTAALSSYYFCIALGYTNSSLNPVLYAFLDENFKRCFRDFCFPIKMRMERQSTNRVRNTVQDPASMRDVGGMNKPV
Sequence of Kappa-type opioid receptor (Cavia porcellus) (P41144 whole entry): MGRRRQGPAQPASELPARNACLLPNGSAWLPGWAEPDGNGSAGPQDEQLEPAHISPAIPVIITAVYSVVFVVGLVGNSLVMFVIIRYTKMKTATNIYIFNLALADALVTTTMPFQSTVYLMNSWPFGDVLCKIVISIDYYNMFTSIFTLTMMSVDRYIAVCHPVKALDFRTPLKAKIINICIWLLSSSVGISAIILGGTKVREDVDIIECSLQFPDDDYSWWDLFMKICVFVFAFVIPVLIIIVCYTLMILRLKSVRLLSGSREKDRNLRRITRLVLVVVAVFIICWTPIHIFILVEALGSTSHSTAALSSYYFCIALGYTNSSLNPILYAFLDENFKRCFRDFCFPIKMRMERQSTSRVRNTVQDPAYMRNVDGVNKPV
Sequence of Kappa-type opioid receptor (Cavia porcellus, UniProt P41144) (P41144 whole entry): as above

Molecule `CC(C)C[C@@H](NC(=O)[C@@H](Cc1ccccc1)NC(=O)[C@H](N)Cc1ccccc1)C(=O)N[C@H](CCCCN)C(=O)N1CCC(N)(C(=O)O)CC1` [listing 1 of 2 here] has a Ki [1] of 0.32 nM and a Ki [2] greater than 10000 nM.

In the case of `Cc1cc(C)cc([C@@H]2CCCN2Cc2ccc(Oc3ccc(C(N)=O)cc3F)cc2)c1` [ATICAPRANT], the half-life [3] is reported as 21 h and the Tmax [4] is reported as 1 h.

In the case of `C[N+]1(CC2CC2)CC[C@]23c4c5ccc(O)c4O[C@H]2C(=O)CC[C@@]3(O)[C@H]1C5` (some centres not stated) [METHYLNALTREXONE], the Ki [5] is reported as roughly 30 nM, the Ki [2] is reported as 10 nM and the EC50 [6] is reported as 6.7 nM.

For `CC(C)C[C@@H](NC(=O)[C@@H](Cc1ccccc1)NC(=O)[C@H](N)Cc1ccccc1)C(=O)N[C@H](CCCCN)C(=O)N1CCC(N)(C(=O)O)CC1` [listing 2 of 2 here], the ED50 [7] was 0.38 mg/kg, the ED50 [8] was 0.07 mg/kg and the ED50 [9] was 0.3 mg/kg. For the same molecule, the ED50 [10] was 0.3 mg/kg.

Work on `C[C@H]1[C@@H]2Cc3ccc(O)cc3[C@]1(C)CCN2CC1CC1` yielded an ED50 [11] of 0.077 mg/kg and an ED50 [12] of 0.47 mg/kg.

`O=C1CNC(=O)[C@H](Cc2ccccc2)NC(=O)[C@@H](Cc2c[nH]c3ccccc23)NC(=O)CCN1` (cyclo(FG[βAla][dW])) showed a Ki [13] greater than 10 nM and a Ki [14] greater than 10 nM.

`CCCC[C@@H](NC(=O)[C@@H](CC1=CC=CCC1)NC(=O)[C@H](N)Cc1ccccc1)C(=O)N[C@H](CCCNC(=N)N)C(N)=O` showed a Ki [1] of less than 1 nM.

Molecule `CC(C)=CCN1CC[C@@]2(C)c3cc(O)ccc3CC1C2C` (some centres not stated) [PENTAZOCINE] has a Ki [1] of 7.6 nM, an EC50 [6] of 40 nM and a Ki [15] of 62 nM.

For `Cc1ccc(CSc2nnc(-c3ccccn3)n2Cc2ccco2)cc1C(F)(F)F`, the Ki [2] was 1900 nM and the Ki [15] was 5350 nM.

Work on `COC(=O)N1CCN(C(=O)Cc2ccc(Cl)c(Cl)c2)C(CN2CCCC2)C1` (configuration not stated) yielded an ED50 [16] of 0.00052 mg/kg and an IC50 [17] of 0.041 nM.

`O=C(N[C@@H]1C=C[C@H]2[C@H]3Cc4ccc(O)c5c4[C@@]2(CCN3CC2CC2)[C@H]1O5)c1cccc(I)c1` showed a Ki [18] of 0.006 nM, an ED50 [19] of 1 mg/kg and a Ki [2] of 0.021 nM. The ED50 [20] was 0.33 mg/kg and the Ki [14] was 0.08 nM.

With `O=C(N[C@@H]1CC[C@@]2(O)[C@H]3Cc4ccc(O)c5c4[C@@]2(CCN3CC2CC2)[C@H]1O5)c1cc[n+](Cc2ccccc2)cc1` the Ki [1] was 3.46 nM, the Ki [2] was 3.46 nM and the Ki [14] was 722 nM.

With `O=C(N[C@@H]1CC[C@@]2(O)[C@H]3Cc4ccc(O)c5c4[C@@]2(CCN3CC2CC2)[C@H]1O5)c1ccc2ccccc2c1` the ED50 [21] was 18.7 pmol.

For `O=C(O[C@@H]1[C@@H]2[C@H]3C[C@@H](C[C@H]2C(=O)O[C@H]1c1ccoc1)OC3=O)c1ccccc1`, the Ki [18] was 9 nM, the Ki [22] was greater than 5000 nM and the EC50 [23] was 2 nM.

Molecule `N=C(N)Nc1ccc2c3c([nH]c2c1)[C@@H]1Oc2c(O)ccc4c2[C@@]12CCN(CC1CC1)[C@H](C4)[C@]2(O)C3` has a Ki [24] of 81.8 nM and a Ki [25] of 20.3 nM.

`CCCCN(CCc1ccccc1)CCc1cccc(O)c1` gave a Ki [2] of 360 nM, an Activity [26] of 45.5% and a Ki [15] of 2700 nM.

For `COC(=O)[C@@H]1C[C@H](OC(C)=O)[C@H](O)[C@H]2[C@@]1(C)CC[C@H]1C(=O)O[C@H](c3ccoc3)C[C@]21C` [1-ALPHA-HYDROXYSALVINORIN A], the half-life [27] was 3.75 h, the half-life [28] was 3.75 h and the half-life [29] was 3.75 h.

For `CC(C)C[C@@H](NC(=O)[C@@H](CC1=CC=CCC1)NC(=O)[C@H](N)Cc1ccccc1)C(=O)N[C@H](CCCN)C(=O)N1CCOCC1`, the Ki [1] was 0.08 nM and the AD50 [30] was 0.013 mg/kg.

`COC(=O)[C@@H]1C[C@H](OC(=O)C2=Cc3ccccc3C2)C(=O)[C@H]2[C@@]1(C)CC[C@H]1C(=O)O[C@H](c3ccoc3)C[C@]21C` showed an EC50 [31] of 49.5 nM, a Ki [1] of 49.7 nM and a Ki [2] of 538 nM. The EC50 [6] was 853 nM.

For `C[C@H]1[C@H]2Cc3ccc(O)cc3[C@@]1(C)CCN2CCc1ccccc1`, the ED50 ([32]; Mus musculus, read-out: ED50) was 6.3 mg/kg.

In the case of `CCCC[C@@H](NC(=O)[C@@H](CC1=CC=CCC1)NC(=O)[C@H](N)Cc1ccccc1)C(=O)N[C@H](CCCNC(=N)N)C(=O)NCc1ccncc1`, the Ki [1] is reported as 0.24 nM and the AD50 [30] is reported as 0.007 mg/kg.

Work on `CN(C(=O)C(c1ccccc1)c1ccccc1)[C@H](CN1CC[C@H](O)C1)c1ccccc1` [ASIMADOLINE] yielded a Ki [33] of 5.6 nM.

Molecule `Oc1ccc2c(c1)[C@@]13CCCC[C@H]1[C@@H](C2)N(CC1CCC1)CC3` [BUTORPHAN] has an ED50 [34] of 7.3 nmol and an ED50 [32] of 0.79 nmol.

In the case of `C#Cc1occc1[C@@H]1C[C@@]2(C)[C@@H](CC[C@@]3(C)[C@H](C(=O)OC)C[C@H](OC(C)=O)C(=O)[C@@]32C)C(=O)O1`, the Ki [1] is reported as 2.5 nM.

With `CC(C)=CCN1CC[C@]2(C)c3cc(O)ccc3C[C@H]1[C@H]2C` [(+)-PENTAZOCINE] the Ki [1] was 7.6 nM, the EC50 [6] was 40 nM and the Ki [15] was 62 nM.

Molecule `CN1CC[C@]23c4c5ccc(O)c4O[C@H]2C(=O)CC[C@@]3(OCCCc2ccccc2)[C@H]1C5` has a Ki [18] of 0.3 nM, an AD50 [35] of 0.0007 mg/kg and a Ki [25] of 0.073 nM. The Ki [36] was 0.13 nM.

`C[C@H]1[C@H]2Cc3ccc(C(N)=O)cc3[C@@]1(C)CCN2CC1CC1` showed an ED50 [37] of 0.21 nmol and a Ki [14] of 4.9 nM.

With `CN(C(=O)/C=C/c1ccoc1)[C@@H]1CC[C@@]2(O)[C@H]3Cc4ccc(O)c5c4[C@@]2(CCN3CC2CC2)[C@H]1O5` [NALFURAFINE] the ED50 ([34]; Mus musculus, read-out: ED50) was 0.003 mg/kg and the ED50 ([32]; Mus musculus, read-out: ED50) was 0.062 mg/kg.
